Where two headings read alike, the source gives them in different places.
Legend:
[1] = Systemic 3H bioavailability of kappa peptide conjugates, conscious rat model (plasma); format: in vivo, Wistar rats
Experimental: The possible enhancing effects of ELAN094 and ELAN207 MTLPs (SEQ ID NOs 2 and 60) on intestinal absorption of the kappa peptide were examined in a conscious rat model.
The study was non-randomised, parallel group design. Wistar rats within the 250-350 g weight range were used. All animals were fasted for a period of 16 h prior to study initiation. Water was available at all times.
Intravenous injection of 10 μCi of ^3H-kappa peptide-Kaffiralin-1 (plain kappa peptide) (tail vein injection).
Intraduodenal instillation of 100 μCi of ^3H-kappa peptide-Elan094 (Analysed). The Elan094 ligand contains a membrane translocating sequence.
Intraduodenal instillation of 100 μCi of ^3H-kappa peptide-Elan207 (Analysed). The Elan207 ligand contains a membrane translocating sequence.
Intraduodenal instillation of 100 μCi of ^3H-kappa peptide-Kaffiralin-1.
The plasma (100-250 μl) was made up to 1 ml with BTS-450 (an organic tissue solubiliser) and incubated for 1 hour. Ten ml of Scintillation fluid was added and the radioactivity was measured.
The study was a non-randomised, parallel group biostudy designed to evaluate the systemic bioavailability of tritium labelled kappa peptide conjugates after intra-duodenal instillation in the conscious rat model. Each rat only received one treatment and the plasma samples were analysed for tritium content. The calculation of AUClast, Amax, tmax, Volume of Distribution (V d) and Clearance was based on base line corrected data. The absolute bioavailability was calculated using potency corrected data.

[2] = 3H tissue distribution of kappa peptide conjugates, conscious rat model; format: in vivo, Wistar rats; settings: potency corrected; for Kidney, % of administered dose / Plasma, % of administered dose / Total Recovery, % of administered dose: t=6 h
Experimental: The tissue was weighed and a representative sample, (ca 0.1 g), was removed to a scintillation vial. The tissue was solubilzed with 1 ml of BTS-450 (an organic tissue solubliser). Ten ml of scintillation fluid was added and the radioactivity was measured. The radioactivity was expressed as dpm/initial weight of tissue.

[3] = target: T1, kappa receptor (Rattus norvegicus, UniProt P34975); experiment: Competition for binding of a radiolabelled kappa peptide to rat brain homogenates; settings: for opioid activity post conjugation: compared to unconjugated H-ffir-NH2 or to the ELAN207 conjugate
T1 construct: from tissue; host or cells: rat brain homogenate
Experimental: The integrity of the opioid peptide was evaluated post conjugation to assess suitability for inclusion in further studies. Opioid activity was assessed in vitro using a competition assay (competition for binding of a radiolabelled kappa peptide to rat brain homogenates).

[4] = intraduodenal (ID), 100 μCi, Elan207 = original group
[5] = IV, 10 μCi, listed as 3H Kappa peptide-Kaffiralin-1
[6] = IC50, Table 11, first IC50 column

CC[C@@H](C)[C@@H](NC(=O)[C@@H](Cc1ccccc1)NC(=O)[C@H](N)Cc1ccccc1)C(=O)N[C@H](CCCNC(=N)N)C(N)=O [3H-Kappa peptide-Kaffiralin-1]
3H AUClast [1, 4]: 73098.43±9493.88 dpm/ml·h
3H Amax (maximum radioactivity) [1, 4]: 70925.33±23631.28 dpm/ml
3H AUClast ([1]; intravenous (IV), 10 μCi): 132184.24±13288.32 dpm/ml·h
3H Amax (maximum radioactivity) ([1]; intravenous (IV), 10 μCi): 903603.03±186855.31 dpm/ml
bioavailability ([1]; rat, plasma, intraduodenal (ID), 100 μCi, potency corrected, Elan207 = original group, read-out: Absolute 3H bioavailability): 7.94 ± 1.92%
clearance ([1]; rat, plasma, intravenous (IV), 10 μCi): 2.38 mL/min
Vd ([1]; rat, plasma, intravenous (IV), 10 μCi, read-out: Volume of Distribution): 0.964 ± 0.256 L
Catheter, % of administered dose ([2]; ID, 100 μCi): 0.06 ± 0.05%
GI Tissue, % of administered dose ([2]; ID, 100 μCi): 7.72 ± 4.98%
GI Washing, % of administered dose ([2]; ID, 100 μCi): 15.85 ± 5.00%
GI contents, % of administered dose ([2]; ID, 100 μCi): 37.31 ± 15.75%
Liver, % of administered dose ([2]; ID, 100 μCi): 0.63 ± 0.37%
Total GI (% recovery from GI tissue, GI contents & GI wash) ([2]; ID, 100 μCi): 60.87 ± 16.74%
Kidney, % of administered dose ([2]; ID, 100 μCi): 0.16 ± 0.17%
Plasma, % of administered dose ([2]; ID, 100 μCi): 0.06 ± 0.01%
Total Recovery, % of administered dose ([2]; ID, 100 μCi): 61.79 ± 16.93%
Plasma, % of administered dose ([2]; ID, 100 μCi, listed as 3H-Kappa peptide Kaffiralin-1): 0.06±0.01%
GI Tissue, % of administered dose ([2]; IV, 10 μCi): 1.62 ± 0.41%
GI Washing, % of administered dose ([2]; IV, 10 μCi): 1.98 ± 1.01%
GI contents, % of administered dose ([2]; IV, 10 μCi): 23.50 ± 11.04%
Liver, % of administered dose ([2]; IV, 10 μCi): 6.66 ± 1.77%
Total GI (% recovery from GI tissue, GI contents & GI wash) ([2]; IV, 10 μCi): 27.10 ± 11.93%
Liver, % of administered dose [2, 5]: 6.66±1.77%
Kidney, % of administered dose ([2]; IV, 10 μCi): 0.51 ± 0.08%
Plasma, % of administered dose ([2]; IV, 10 μCi): 0.16 ± 0.03%
Total Recovery, % of administered dose ([2]; IV, 10 μCi): 34.43 ± 13.36%
Plasma, % of administered dose [2, 5]: 0.16±0.03%
Total Recovery, % of administered dose ([2]; IV, 10 μCi, listed as 3H Kappa-peptide-Kaffiralin-1): 34.43±13.36%

CC[C@@H](C)[C@@H](NC(=O)[C@@H](Cc1ccccc1)NC(=O)[C@H](N)Cc1ccccc1)C(=O)N[C@H](CCCNC(=N)N)C(=O)N[C@H](CCCCNC(=O)[C@H]1CCCN1C(=O)[C@@H](C)NC(=O)[C@@H](C)NC(=O)[C@@H](CC(C)C)NC(=O)[C@@H](CC(C)C)NC(=O)[C@H](NC(=O)[C@H]1CCCN1C(=O)[C@@H](CC(C)C)NC(=O)[C@@H](CC(C)C)NC(=O)[C@H](NC(=O)[C@@H](C)NC(=O)[C@@H](C)NC(=O)[C@@H](C)NC(=O)[C@@H](CCCCN)NC(=O)[C@H](N)CCCCN)C(C)C)C(C)C)C(N)=O [P10-110, H-ffirk(kkaaavllpvllaap-NH-e)-NH2]
opioid activity post conjugation [3]: significantly reduced

CC[C@@H](C)[C@@H](NC(=O)[C@@H](Cc1ccccc1)NC(=O)[C@H](N)Cc1ccccc1)C(=O)N[C@H](CCCNC(=N)N)C(=O)NCCCC[C@@H](NC(=O)[C@H]1CCCN1C(=O)[C@@H](C)NC(=O)[C@@H](C)NC(=O)[C@@H](CC(C)C)NC(=O)[C@@H](CC(C)C)NC(=O)[C@H](NC(=O)[C@H]1CCCN1C(=O)[C@@H](CC(C)C)NC(=O)[C@@H](CC(C)C)NC(=O)[C@H](NC(=O)[C@@H](C)NC(=O)[C@@H](C)NC(=O)[C@@H](C)NC(=O)[C@@H](CCCCN)NC(=O)[C@H](N)CCCCN)C(C)C)C(C)C)C(N)=O [P10-114, H-kkaaavllpvllaapk(ffir-NH-e)-NH2]
IC50 ([3]; Day 5, second of duplicates, read-out: IC50): 1 nM
IC50 ([3]; Day 82, first of triplicates, read-out: IC50): 0.8 nM
IC50 ([3]; Day 82, second of triplicates, read-out: IC50): 0.8 nM
opioid activity post conjugation [3]: retained, or even enhanced

CC[C@@H](C)[C@@H](NC(=O)[C@@H](Cc1ccccc1)NC(=O)[C@H](N)Cc1ccccc1)C(=O)N[C@H](CCCNC(=N)N)C(=O)NCCCC[C@@H](NC(=O)[C@H]1CCCN1C(=O)[C@@H](C)NC(=O)[C@@H](C)NC(=O)[C@@H](CC(C)C)NC(=O)[C@@H](CC(C)C)NC(=O)[C@H](NC(=O)[C@H]1CCCN1C(=O)[C@@H](CC(C)C)NC(=O)[C@@H](CC(C)C)NC(=O)[C@H](NC(=O)[C@@H](C)NC(=O)[C@@H](C)NC(=O)[C@@H](C)NC(=O)[C@@H](CCCCN)NC(=O)[C@@H](CCCCN)NC(=O)[C@@H](N)CCCCNC(=O)CCCCCNC(=O)CCCC[C@@H]1SC[C@@H]2NC(=O)N[C@@H]21)C(C)C)C(C)C)C(N)=O [P34-154, H-K(biotin-LC)kkaaavllpvllaapk(ffir-NH-e)-NH2]
opioid activity post conjugation [3]: retained activity

CC[C@@H](C)[C@@H](NC(=O)[C@@H](Cc1ccccc1)NC(=O)[C@H](N)Cc1ccccc1)C(=O)N[C@H](CCCNC(=N)N)C(=O)NCCCC[C@H](NC(=O)[C@@H]1CCCN1C(=O)[C@H](C)NC(=O)[C@H](C)NC(=O)[C@H](CC(C)C)NC(=O)[C@H](CC(C)C)NC(=O)[C@@H](NC(=O)[C@@H]1CCCN1C(=O)[C@H](CC(C)C)NC(=O)[C@H](CC(C)C)NC(=O)[C@@H](NC(=O)[C@H](C)NC(=O)[C@H](C)NC(=O)[C@H](C)NC(=O)[C@H](CCCCN)NC(=O)[C@H](CCCCN)NC(=O)[C@@H](N)CCCCNC(=O)CCCCCNC(=O)CCCC[C@@H]1SC[C@@H]2NC(=O)N[C@@H]21)C(C)C)C(C)C)C(N)=O [P37-114]
IC50 [3, 6]: 0.4 nM
opioid activity post conjugation [3]: activity equivalent to that observed with ELAN207

CC[C@@H](C)[C@@H](NC(=O)[C@@H](Cc1ccccc1)NC(=O)[C@H](N)Cc1ccccc1)C(=O)N[C@H](CCCNC(=N)N)C(=O)NCCCC[C@H](NC(=O)[C@@H](CCCCN)NC(=O)[C@@H](CCCCN)NC(=O)[C@@H](C)NC(=O)[C@@H](C)NC(=O)[C@@H](C)NC(=O)[C@H](NC(=O)[C@@H](CC(C)C)NC(=O)[C@@H](CC(C)C)NC(=O)[C@H]1CCCN1C(=O)[C@H](NC(=O)[C@@H](CC(C)C)NC(=O)[C@@H](CC(C)C)NC(=O)[C@@H](C)NC(=O)[C@@H](C)NC(=O)[C@H]1CCCN1C(=O)[C@@H](N)CCCCNC(=O)CCCCCNC(=O)CCCC[C@@H]1SC[C@@H]2NC(=O)N[C@@H]21)C(C)C)C(C)C)C(N)=O [P37-115, H-K(biotin-LC)paallvpllvaaakkK(ffir-NH-e)-NH2]
opioid activity post conjugation [3]: activity equivalent to that observed with ELAN207

CC[C@@H](C)[C@@H](NC(=O)[C@@H](Cc1ccccc1)NC(=O)[C@H](N)Cc1ccccc1)C(=O)N[C@H](CCCNC(=N)N)C(=O)NCCCC[C@H](NC(=O)[C@@H]1CSSC[C@H](NC(=O)[C@H](CCCCN)NC(=O)[C@H](CCCCN)NC(=O)[C@@H](N)CCCCNC(=O)CCCCCNC(=O)CCCC[C@@H]2SC[C@@H]3NC(=O)N[C@@H]32)C(=O)N[C@@H](C)C(=O)N[C@@H](C)C(=O)N[C@@H](C(C)C)C(=O)N[C@@H](CC(C)C)C(=O)N[C@@H](CC(C)C)C(=O)N2CCC[C@H]2C(=O)N[C@@H](C(C)C)C(=O)N[C@@H](CC(C)C)C(=O)N[C@@H](CC(C)C)C(=O)N[C@@H](C)C(=O)N1)C(N)=O [P37-116]
IC50 [3, 6]: 0.2 nM
opioid activity post conjugation [3]: activity equivalent to that observed with ELAN207
